Laboratory results taken from publication PMC11938014, “Development and Application of Small Molecule–Peptide Conjugates as Cathepsin K-Specific Covalent Irreversible Inhibitors in Human Osteoclast and Lung Cancer” (JACS Au, 2025).

Tests used:
[1] = biological target: T1, Recombinant human cathepsin S (Homo sapiens, UniProt P25774); assay: Recombinant cathepsin inhibition, gel-based competition with GB123 probe; format: biochemical; details: Figure 2, read-out: IC50 [μM] CTSS
T1 construct: made in house
Method: In-gel fluorescence analysis was used to detect the residual activity of the cathepsins by applying pan-cathepsin probe GB123 to detect the stable enzyme–probe complex. This approach is used for testing inhibition and selectivity.[37],[41]
Recombinant human cathepsin L (0.5 μM), cathepsin B (0.5 μM), cathepsin K (0.5 μM), and cathepsin S (0.5 μM) were pretreated with different concentrations of inhibitors (GD compounds, odanacatib) for 1 h in reaction buffer (50 mM acetate, 2 mM dithiothreitol (DTT), and 5 mM MgCl2, pH 5.5) at 37 °C. GB123 (1 μM) was added and incubated with samples for 60 min at 37 °C.[37],[41] The reaction was stopped by the addition of sample buffer 4× (40% glycerol, 0.2 M Tris/HCl pH 6.8, 20% β-mercaptoethanol, 12% SDS, and 0.4 mg/mL bromophenol blue). Samples were then boiled, separated on a 12.5% SDS gel, and scanned for fluorescence by a Typhoon scanner FLA 9500 at excitation and emission wavelengths of 635 and 670 nm for GB123.

CTSB = biological target: T2, CTSB (Homo sapiens, UniProt P07858); assay: Kinetic evaluation of recombinant cathepsin inhibition, fluorogenic substrate Z-FR-AMC; format: biochemical
T2 construct: made in house
Method: (§1) Cathepsin (0.4 nM, CatK) or 5 nM (CatS, CatB, and CatL) were each mixed with inhibitors before adding the fluorogenic substrate. The proteases were then reacted with their substrates, Z-RR-AMC (CatL) or Z-FR-AMC (CatS, CatB, and CatK), for 30 min at 37 °C in the phosphate buffer (100 mM Na2HPO4/NaH2PO4, 50 mM NaCl, 5 mM DTT, 0.1% PEG-6000, at pH 6). Reactions were done in 96-well black flat-bottom microplates (Greiner, Germany); fluorescence (Ex/Em 370 and 460 nm) was measured by a Tecan INFINITE M1000 pro plate reader (Tecan, Switzerland) in the presence of inhibitors or vehicle. For irreversible inhibitors, reaction data were analyzed by using the one-phase association formula in GraphPad Prism 9 software: Y = Y0 + (plateau – Y0) × (1 – exp(−K × X)), where Y0 and Y denote the fluorescence signals at times 0 and t, respectively, K represents the observed reaction rate kobs, and X signifies the […]. The inactivation rates at each inhibitor concentration were determined by subtracting the inactivation observed in the control sample: kobs – kctrl. The maximum inactivation rate (kinact) was derived as the asymptote from the equation Y = kinact × X/(Ki^app + X), where X represents the inhibitor concentration, Y is the observed inactivation rate for each X, and Ki^app is the apparent inhibition constant. Ki values were derived from IC50 or Ki^app using the equations Ki = Ki^app/(1 + […]) and IC50 = E0/2 + Ki^app, where Km represents the Michaelis–Menten constant, S denotes substrate concentration, and E0 indicates cathepsin concentration. The maximum inhibitor dose in the experiment was 50 μM. Measurements were conducted in multiple independent duplicates. Average values are listed.

CTSL = biological target: T3, CTSL (Homo sapiens, UniProt P07711); assay: Kinetic evaluation of recombinant cathepsin inhibition, fluorogenic substrate Z-RR-AMC; format: biochemical
T3 construct: made in house
Method: as §1

[2] = biological target: T4, endogenous cathepsin K in the nucleus of human osteoclast (Homo sapiens, UniProt P43235); assay: Fluorescence microscopy of nuclear CTSK inhibition (GD32 probe); format: cell-based; details: 3 μM, 2 h, then GD32 8 h
T4 construct: endogenous in cells; host or cells: primary human osteoclasts differentiated from blood monocytes with M-CSF and RANKL
T4 sequence (P43235 115-329): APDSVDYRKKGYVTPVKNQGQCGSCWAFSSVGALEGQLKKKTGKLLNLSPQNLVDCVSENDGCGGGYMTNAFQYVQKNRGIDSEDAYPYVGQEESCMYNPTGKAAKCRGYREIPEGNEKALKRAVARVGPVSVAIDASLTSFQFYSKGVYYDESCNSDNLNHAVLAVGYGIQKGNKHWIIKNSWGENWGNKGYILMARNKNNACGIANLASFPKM
Excerpt: We have generated inhibitors that block nuclear CTSK activity for the first time. […] CTSK activity labeled by a specific fluorescence ABP, GD32, was detected in the nucleus and nucleoli of osteoclasts, as reported by Dey et al.[19] The CTSK nuclear signal was completely eliminated in the presence of the inhibitors (Figure 9). These inhibitors can facilitate studying CTSK nuclear activity.
Figure 9 Detection of inhibition of endogenous cathepsin K in the nucleus of human osteoclast by fluorescence microscopy. (a) Osteoclast cells were treated with GD20 or GD38 inhibitors [3 μM] or DMSO vehicle in culture medium for 2 h, followed by incubation with GD32 for 8 h, as shown in Figure 8a. Cells were then fixed and stained with DAPI (nucleus), and Z stack images were captured by confocal microscopy. The white arrows indicate the nucleus. […] Red fluorescence is CTSK activity labeled by the ABP (GD32) and blue fluorescence (DAPI). (b) Microscopy image analysis software Imaris 10.0.1 was used to produce a three-dimensional (3D) surface rendering image of a cell nucleus (transparent blue) and CTSK inside it (opaque red) on top of the original image (blue, DAPI; red, GD32). The thresholds for the surfaces were chosen to emphasize CTSK inside the nucleus. One nucleus for each treatment was chosen from pictures in (a). […]

T3 sequence (P07711 114-333): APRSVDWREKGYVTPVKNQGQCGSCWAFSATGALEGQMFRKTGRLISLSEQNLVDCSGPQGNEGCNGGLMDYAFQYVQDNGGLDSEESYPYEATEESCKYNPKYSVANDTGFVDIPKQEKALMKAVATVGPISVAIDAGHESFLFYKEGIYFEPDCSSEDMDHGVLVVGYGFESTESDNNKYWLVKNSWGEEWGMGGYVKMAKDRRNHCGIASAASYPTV
T1 sequence (P25774 115-331): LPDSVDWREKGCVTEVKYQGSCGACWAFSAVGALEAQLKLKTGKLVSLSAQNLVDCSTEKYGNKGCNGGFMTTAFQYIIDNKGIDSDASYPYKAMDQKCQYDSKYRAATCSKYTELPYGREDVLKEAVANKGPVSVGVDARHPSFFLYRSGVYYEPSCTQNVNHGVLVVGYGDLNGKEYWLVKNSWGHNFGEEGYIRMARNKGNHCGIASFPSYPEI

| Structure (SMILES) | IC50 [1] | Ki (CTSB; maximum inhibitor dose 50 μM) | Ki (CTSL; maximum inhibitor dose 50 μM) | nuclear CTSK activity labeled by GD32 [2] | type of inhibition, CTSB (CTSB) | Ki (CTSB; irreversible inhibitor) | kinact (CTSB; read-out: kinact (at 50 μM), CTSB) | type of inhibition, CTSL (CTSL) | Ki (CTSL; irreversible inhibitor) | kinact (CTSL; read-out: kinact (at 50 μM), CTSL) |
| --- | --- | --- | --- | --- | --- | --- | --- | --- | --- | --- |
| CC(C)C[C@H](N[C@@H](c1ccc(-c2ccc(S(C)(=O)=O)cc2)cc1)C(F)(F)F)C(=O)NCC(=O)COC(=O)[C@@H]1CCCN1C(=O)[C@H](CC(C)C)NC(=O)OCC1c2ccccc2-c2ccccc21 [GD20] | 13 ± 2.8 µM | > 50 µM | > 50 µM | block CTSK activity in the nucleolus | – | – | – | – | – | – |
| CC(C)C[C@H](N[C@@H](c1ccc(-c2ccc(S(C)(=O)=O)cc2)cc1)C(F)(F)F)C(=O)NCC(=O)COC(=O)[C@@H]1CCCN1C(=O)[C@H](CCC(N)=O)NC(=O)OCC1c2ccccc2-c2ccccc21 [GD38] | 8.3 ± 2.3 µM | – | – | block CTSK activity in the nucleolus | irreversible | > 50 µM | 0.0072 s⁻¹ | irreversible | > 50 µM | 0.0045 s⁻¹ |
